For one experiment, the system named is Phakopsora pachyrhizi. The experiment is described as follows: Phakopsora pachyrhizi / soybean / leaf disc preventative (Asian soybean rust). In kind it is in vivo. The following applies: foliar, 200 ppm in the applied formulation, soybean leaf disks, inoculated one day after application, vs untreated, 12 to 14 days after application, read-out: disease control. Put shortly: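 Soybean leaf discs on water agar sprayed with formulated compound diluted in water, then inoculated one day later with spore suspension on the lower surface. Held 24-36 h dark at 20 °C, 75% rh, then 12 h light/day; percent disease control versus untreated scored 12-14 days after application.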

The subject of a further experiment is Uromyces viciae-fabae. The experiment is described as follows: Uromyces viciae-fabae / field bean / leaf disc preventative (faba-bean rust). In kind it is in vivo. As to conditions: foliar, 288 h, 100 ppm in the applied formulation, field bean leaf discs, inoculated two hours after application, vs untreated, 12 days after application, read-out: disease control. As for the experimental part:
Leaf disks or leaf segments of various plant species are cut from plants grown in a greenhouse. The cut leaf disks or segments are placed in multiwell plates (24-well format) onto water agar. The leaf disks are sprayed with a test solution before (preventative) or after (curative) inoculation. Compounds to be tested are prepared as DMSO solutions (max. 10 mg/ml) which are diluted to the appropriate concentration with 0.025% Tween20 just before spraying. The inoculated leaf disks or segments are incubated under defined conditions (temperature, relative humidity, light, etc.) according to the respective test system. A single evaluation of disease level is carried out 3 to 14 days after inoculation, depending on the pathosystem. Percent disease control relative to the untreated check leaf disks or segments is then calculated.
Example 5: Fungicidal Activity Against Uromyces viciae-fabael Field Bean/Leaf Disc Preventative (Faba-Bean Rust)
Field bean leaf discs are placed on water agar in multiwell plates (96-well format) and 10 μl of the Formulated test compound diluted in acetone and a spreader pipetted onto the leaf disc. Two hours after application leaf discs are inoculated by spraying a spore suspension on the lower leaf surface. The leaf discs are incubated in a climate cabinet at 22° C. with 18 hour day and 70% relative humidity. The activity of a compound is assessed as percent disease control compared to untreated when an appropriate level of disease damage appears in untreated check leaf disks (12 days after application).
The following compounds at 100 ppm in the applied Formulation give at least 80% disease control in this test when compared to untreated control leaf discs under the same conditions, which show extensive disease development.

Experiment [1] has as its system Glomerella lacenarium (Colletotrichum lacenarium). The experiment can be described thus: Glomerella lacenarium (Colletotrichum lacenarium) liquid culture / cucumber / preventative (anthracnose). In kind it is cell-based. As to conditions: 20 ppm, liquid culture in PDB, 24° C., inhibition of growth measured photometrically 3 to 4 days after application, vs untreated, read-out: disease control. An outline of the steps: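 Cryopreserved conidia in potato dextrose broth were added to test compound in a 96-well microtiter plate and incubated at 24 °C. Growth inhibition read photometrically 3–4 days after application, as percent activity versus untreated check.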

Experiment [2] has as its system Puccinia recondita f. Sp. Tritici. The experiment is described as follows: Puccinia recondita f. sp. tritici / wheat / leaf disc preventative (brown rust). The experiment is classed as in vivo. As to conditions: foliar, 200 ppm in the applied formulation, wheat leaf segments cv. Kanzler, inoculated 1 day after application, vs untreated, 7 to 9 days after application, read-out: disease control. An outline of the steps:
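Preventative leaf-segment test on wheat cv. Kanzler: formulated compound diluted in water was sprayed onto segments on agar, with spore inoculation 1 day later. Incubated at 19° C, 75% rh, 12 h light/12 h dark; percent disease control versus untreated scored 7 to 9 days after application.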

Some results are limits rather than exact numbers.

For the compound `O=C(Nc1ccc(-c2noc(C(F)(F)F)n2)cc1)c1cncc(N2CCOCC2)n1` [Compound 1.2, 6-morpholino-N-[4-[5-(trifluoromethyl)-1,2,4-oxadiazol-3-yl]phenyl]pyrazine-2-carboxamide], in the experiment on Phakopsora pachyrhizi, the pest or weed control at 200 ppm is at least 80%. Moreover, the pest or weed control at 100 ppm with Uromyces viciae-fabae was at least 80%.
As for `CC12CCC(C(=O)Nc3ccc(-c4noc(C(F)(F)F)n4)cc3)(OC1=O)C2(C)C` (stereo not drawn) [Compound 1.4, 1,7,7-trimethyl-2-oxo-N-[4-[5-(trifluoromethyl)-1,2,4-oxadiazol-3-yl]phenyl]-3-oxabicyclo[2.2.1] heptane-4-carboxamide], the pest or weed control at 200 ppm with Phakopsora pachyrhizi is at least 80%. Also, the pest or weed control at 100 ppm in the experiment with Uromyces viciae-fabae is at least 80%. Also, in experiment [1], the inhibition of growth at 20 ppm was at least 80%.
Consider `COc1cc(C(=O)Nc2ccc(-c3noc(C(F)(F)F)n3)cc2)cc(OC)c1OC` [Compound 1.6, 3,4,5-trimethoxy-N-[4-[5-(trifluoromethyl)-1,2,4-oxadiazol-3-yl]phenyl]benzamide], for which the pest or weed control at 200 ppm (in the experiment with Phakopsora pachyrhizi; in experiment [2]) was at least 80% each time. In addition, the pest or weed control at 100 ppm in the experiment on Uromyces viciae-fabae is at least 80%.
`CS(=O)(=O)CC(=O)Nc1ccc(-c2noc(C(F)(F)F)n2)cc1` [Compound 1.10, 2-methylsulfonyl-N-[4-[5-(trifluoromethyl)-1,2,4-oxadiazol-3-yl]phenyl]acetamide]: the pest or weed control at 100 ppm with Uromyces viciae-fabae is at least 80%. Also, the inhibition of growth at 20 ppm in experiment [1] is at least 80%.
With `COc1cc(CCC(=O)Nc2ccc(-c3noc(C(F)(F)F)n3)cc2)cc(OC)c1OC` [Compound 1.13, N-[4-[5-(trifluoromethyl)-1,2,4-oxadiazol-3-yl]phenyl]-3-(3,4,5-trimethoxyphenyl) propanamide], the pest or weed control at 100 ppm in the experiment with Uromyces viciae-fabae is at least 80%. Also, the pest or weed control at 200 ppm in experiment [2] is at least 80%. For the same compound, the inhibition of growth at 20 ppm in experiment [1] was at least 80%.
Regarding `N#Cc1cc(F)c(C(=O)Nc2ccc(-c3noc(C(F)(F)F)n3)cc2)c(F)c1` [Compound 1.15, 4-cyano-2,6-difluoro-N-[4-[5-(trifluoromethyl)-1,2,4-oxadiazol-3-yl]phenyl]benzamide], the pest or weed control at 100 ppm in the experiment on Uromyces viciae-fabae was at least 80%. Further, the inhibition of growth at 20 ppm in experiment [1] was at least 80%.
`O=C(Nc1ccc(-c2noc(C(F)(F)F)n2)cc1)C(F)c1ccccc1` (stereo not drawn) [Compound 1.16, 2-fluoro-2-phenyl-N-[4-[5-(trifluoromethyl)-1,2,4-oxadiazol-3-yl]phenyl]acetamide]: the pest or weed control at 200 ppm (in the experiment with Phakopsora pachyrhizi; in experiment [2]) was at least 80% each time. Besides, in the experiment on Uromyces viciae-fabae, the pest or weed control at 100 ppm was at least 80%. The inhibition of growth at 20 ppm in experiment [1] is at least 80%.
Consider `O=C(CCC(F)(F)F)Nc1ccc(-c2noc(C(F)(F)F)n2)cc1` [Compound 1.20, 4,4,4-trifluoro-N-[4-[5-(trifluoromethyl)-1,2,4-oxadiazol-3-yl]phenyl]butanamide], for which the pest or weed control at 200 ppm (in the experiment on Phakopsora pachyrhizi; in experiment [2]) was at least 80% in each case. Moreover, in the experiment on Uromyces viciae-fabae, the pest or weed control at 100 ppm is at least 80%. In addition, the inhibition of growth at 20 ppm in experiment [1] is at least 80%.
Consider `O=C(Cn1cncn1)Nc1ccc(-c2noc(C(F)(F)F)n2)cc1` [Compound 1.23, 2-(1,2,4-triazol-1-yl)-N-[4-[5-(trifluoromethyl)-1,2,4-oxadiazol-3-yl]phenyl]acetamide], for which the pest or weed control at 100 ppm with Uromyces viciae-fabae is at least 80%. Moreover, the pest or weed control at 200 ppm in experiment [2] was at least 80%. Besides, in experiment [1], the inhibition of growth at 20 ppm is at least 80%.
Turning to `CC(C)NC(=O)c1c(F)cccc1C(=O)Nc1ccc(-c2noc(C(F)(F)F)n2)cc1` [Compound 1.29, 3-fluoro-N2-isopropyl-N1-[4-[5-(trifluoromethyl)-1,2,4-oxadiazol-3-yl]phenyl] phthalamide], the pest or weed control at 200 ppm (with Phakopsora pachyrhizi; in experiment [2]) was at least 80% throughout. Besides, in the experiment with Uromyces viciae-fabae, the pest or weed control at 100 ppm is at least 80%. The inhibition of growth at 20 ppm in experiment [1] was at least 80%.
For `CC(C)(C(=O)Nc1ccc(-c2noc(C(F)(F)F)n2)cc1)c1ncc(Cl)cc1Cl` [Compound 1.32, 2-(3,5-dichloro-2-pyridyl)-2-methyl-N-[4-[5-(trifluoromethyl)-1,2,4-oxadiazol-3-yl]phenyl] propanamide], the pest or weed control at 100 ppm in the experiment with Uromyces viciae-fabae was at least 80%. For the same compound, the pest or weed control at 200 ppm in experiment [2] is at least 80%.
Turning to `O=C(Nc1ccc(-c2noc(C(F)(F)F)n2)cc1)c1cc(F)cc2nnsc12` [Compound 1.34, 5-fluoro-N-[4-[5-(trifluoromethyl)-1,2,4-oxadiazol-3-yl]phenyl]-1,2,3-benzothiadiazole-7-carboxamide], the pest or weed control at 100 ppm in the experiment with Uromyces viciae-fabae was at least 80%.
Same read-out and setting: for `O=C(COc1ccc(Oc2cccc(F)c2)cc1)Nc1ccc(-c2noc(C(F)(F)F)n2)cc1` [Compound 1.35, 2-[4-(3-fluorophenoxy)phenoxy]-N-[4-[5-(trifluoromethyl)-1,2,4-oxadiazol-3-yl]phenyl]acetamide] the value was at least 80%; for `Cc1sc(Nc2ccccc2)nc1C(=O)Nc1ccc(-c2noc(C(F)(F)F)n2)cc1` [Compound 1.37, 2-anilino-5-methyl-N-[4-[5-(trifluoromethyl)-1,2,4-oxadiazol-3-yl]phenyl]thiazole-4-carboxamide], at least 80%; for `O=C(Nc1ccc(-c2noc(C(F)(F)F)n2)cc1)c1cccc(OCc2ccccc2)c1` [Compound 1.38, 3-benzyloxy-N-[4-[5-(trifluoromethyl)-1,2,4-oxadiazol-3-yl]phenyl]benzamide], at least 80%.
For `CC1Cc2c(Br)ccc(C(=O)Nc3ccc(-c4noc(C(F)(F)F)n4)cc3)c2S1(=O)=O` (stereo not drawn) [Compound 1.39, 4-bromo-2-methyl-1,1-dioxo-N-[4-[5-(trifluoromethyl)-1,2,4-oxadiazol-3-yl]phenyl]-2,3-dihydrobenzo-thiophene-7-carboxamide], the pest or weed control at 100 ppm in the experiment on Uromyces viciae-fabae was at least 80%. In addition, the inhibition of growth at 20 ppm in experiment [1] was at least 80%.
As for `O=C(Nc1ccc(-c2noc(C(F)(F)F)n2)cc1)C(F)(F)c1ccc(Br)cc1` [Compound 1.40, 2-(4-bromophenyl)-2,2-difluoro-N-[4-[5-(trifluoromethyl)-1,2,4-oxadiazol-3-yl]phenyl]acetamide], the pest or weed control at 100 ppm in the experiment on Uromyces viciae-fabae is at least 80%.
As to `O=C(Nc1ccc(-c2noc(C(F)(F)F)n2)cc1)c1ccc(-n2ccnc2)cc1` [Compound 1.42, 4-imidazol-1-yl-N-[4-[5-(trifluoromethyl)-1,2,4-oxadiazol-3-yl]phenyl]benzamide], the pest or weed control at 100 ppm in the experiment on Uromyces viciae-fabae was at least 80%.
Consider `O=C(Nc1ccc(-c2noc(C(F)(F)F)n2)cc1)c1cc(Br)nn1-c1ncccc1Cl` [Compound 1.43, 5-bromo-2-(3-chloro-2-pyridyl)-N-[4-[5-(trifluoromethyl)-1,2,4-oxadiazol-3-yl]phenyl]pyrazole-3-carboxamide], for which, in the experiment on Uromyces viciae-fabae, the pest or weed control at 100 ppm is at least 80%.
Consider `CCC(=O)N(CC(=O)NC(C)(C)C)c1ccc(-c2noc(C(F)(F)F)n2)cc1` [Compound 1.57, N-[2-(tert-butylamino)-2-oxo-ethyl]-N-[4-[5-(trifluoromethyl)-1,2,4-oxadiazol-3-yl]phenyl] propanamide], for which the pest or weed control at 100 ppm in the experiment on Uromyces viciae-fabae is at least 80%. The pest or weed control at 200 ppm in experiment [2] is at least 80%. Also, the inhibition of growth at 20 ppm in experiment [1] was at least 80%.
Regarding `COCC(=O)N(CC(=O)NC(C)(C)C)c1ccc(-c2noc(C(F)(F)F)n2)cc1` [Compound 1.58, N-tert-butyl-2-[N-(2-methoxyacetyl)-4-[5-(trifluoromethyl)-1,2,4-oxadiazol-3-yl]anilino]acetamide], the pest or weed control at 100 ppm in the experiment with Uromyces viciae-fabae was at least 80%. Further, the pest or weed control at 200 ppm in experiment [2] is at least 80%.
`CC(=O)N(c1ccc(-c2noc(C(F)(F)F)n2)cc1)C(C)C(=O)NC(C)(C)C` (stereo not drawn) [Compound 1.59, 2-[N-acetyl-4-[5-(trifiuoromethyl)-1,2,4-oxadiazol-3-yl]anilino]-N-tert-butyl-propanamide]: the pest or weed control at 100 ppm in the experiment with Uromyces viciae-fabae is at least 80%.
Same read-out and setting: for `CC(=O)N(c1ccc(-c2noc(C(F)(F)F)n2)cc1)C(C)(C)C(=O)NC(C)(C)C` [Compound 1.61, 2-[N-acetyl-4-[5-(trifluoromethyl)-1,2,4-oxadiazol-3-yl]anilino]-N-tert-butyl-2-methyl-propanamide] the value was at least 80%.
